# Assay: Binding affinity towards NMDA receptor ion channel (PCP site) was determined
row,SMILES,Ki
1,OC12C3C4CC5C6C4C1C6C(C53)N2Cc1cccc(Br)c1 (stereo unspecified),> 10 µM
2,OC12C3C4CC5C6C4C1C6C(C53)N2Cc1ccccc1 (stereo unspecified),> 10 µM
3,Ic1cccc(CNC2C3C4CC5C6C4C2C6C2(OCCO2)C53)c1 (stereo unspecified),> 10 µM
4,Ic1ccc(CNC2C3C4CC5C6C4C2C6C2(OCCO2)C53)cc1 (stereo unspecified),> 10 µM

# Next, values leading:
row,Ki,SMILES
1,> 10 µM,c1ccc(CNC2C3C4CC5C6C4C2C6C2(OCCO2)C53)cc1 (stereo unspecified)
2,> 10 µM,Brc1cccc(CNC2C3C4CC5C6C4C2C6C2(OCCO2)C53)c1 (stereo unspecified)

# From ChEMBL document CHEMBL1128991, “Trishomocubanes, a new class of selective and high affinity ligands for the sigma binding site” (Bioorg Med Chem Lett, 1996)
